Where a name gives a salt, the structure may show the parent alone.
Assay: Self-reported use as a sleep aid at night: sleep and morning aftereffects (applicant and two friends)
Type: in vivo
Settings: patent applicant, taken for sleep, morning after; worse with less than seven hours of sleep
Excerpt: They further recommended same to two of their close friends who had complained of same aftereffects of Benadryl.
When aspirin was used with other sleep aids that contain diphenhydramine as an active ingredient, similar result was obtained.

CN(C)CCOC(c1ccccc1)c1ccccc1 [Benadryl, diphenhydramine HCL]
aftereffects in the morning (poor sleep quality, lingering drowsiness, difficulty concentrating): would experience some of the aftereffects of Benadryl such as poor sleep quality, lingering drowsiness or difficulty concentrating

Source: US20250255888A1, “Use of Baby Aspirin with Diphenhydramine or other Sleep Aids” (priority 2024, published 2025)
